Source: patent publication US20260199324A1, “METHOD OF TREATING BREAST CANCER” (Arvinas Operations, Inc., priority 2022, published 2026)
Structures can show the parent of a compound that is named as a salt. One block for each compound: values may come before it.

Columns and labels:
P-gp = target: T1, P-gp (Homo sapiens, UniProt P08183); assay: Phase 1 open-label fixed-sequence 2-period drug-drug interaction study: effect of single oral dose of Compound A on PK of dabigatran (P-gp probe substrate); format: in vivo; settings: co-administration of Compound A with dabigatran in healthy participants
T1 construct: from tissue; host or cells: intestine of healthy human participants (in vivo)
T1 sequence (P08183 whole entry): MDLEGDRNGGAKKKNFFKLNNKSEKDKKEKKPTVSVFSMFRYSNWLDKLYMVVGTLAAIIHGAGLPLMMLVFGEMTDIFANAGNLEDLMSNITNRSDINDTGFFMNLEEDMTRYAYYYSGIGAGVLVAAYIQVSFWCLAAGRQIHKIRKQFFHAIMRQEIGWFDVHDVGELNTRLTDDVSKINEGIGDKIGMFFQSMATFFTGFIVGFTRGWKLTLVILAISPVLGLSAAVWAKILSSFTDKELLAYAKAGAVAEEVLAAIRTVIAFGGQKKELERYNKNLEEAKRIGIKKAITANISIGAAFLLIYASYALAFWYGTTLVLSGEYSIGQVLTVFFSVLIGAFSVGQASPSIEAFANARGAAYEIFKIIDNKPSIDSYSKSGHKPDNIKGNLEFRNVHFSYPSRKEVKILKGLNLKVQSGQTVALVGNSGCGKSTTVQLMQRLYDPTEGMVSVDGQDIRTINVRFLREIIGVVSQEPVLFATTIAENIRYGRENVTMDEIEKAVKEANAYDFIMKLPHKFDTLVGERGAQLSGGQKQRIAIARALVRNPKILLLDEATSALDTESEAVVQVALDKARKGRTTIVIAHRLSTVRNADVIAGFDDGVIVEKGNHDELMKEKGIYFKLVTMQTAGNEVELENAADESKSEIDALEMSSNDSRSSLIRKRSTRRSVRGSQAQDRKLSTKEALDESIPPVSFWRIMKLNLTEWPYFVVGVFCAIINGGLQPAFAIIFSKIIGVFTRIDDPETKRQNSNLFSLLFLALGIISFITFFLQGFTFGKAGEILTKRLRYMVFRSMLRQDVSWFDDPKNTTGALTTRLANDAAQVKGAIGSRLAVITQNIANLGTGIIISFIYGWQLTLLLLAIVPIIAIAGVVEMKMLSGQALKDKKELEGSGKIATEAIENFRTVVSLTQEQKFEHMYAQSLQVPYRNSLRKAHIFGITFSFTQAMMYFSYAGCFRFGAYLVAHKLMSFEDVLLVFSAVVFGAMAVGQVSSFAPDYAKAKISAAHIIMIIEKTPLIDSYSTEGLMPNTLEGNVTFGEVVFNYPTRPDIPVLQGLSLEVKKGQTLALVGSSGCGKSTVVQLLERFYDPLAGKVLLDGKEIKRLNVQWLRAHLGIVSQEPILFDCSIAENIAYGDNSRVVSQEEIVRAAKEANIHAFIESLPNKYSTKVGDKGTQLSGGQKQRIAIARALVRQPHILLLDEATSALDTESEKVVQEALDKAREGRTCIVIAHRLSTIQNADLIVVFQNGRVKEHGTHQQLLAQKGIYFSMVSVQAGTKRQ
Description: Compound A was investigated in an interventional, Phase 1, open-label, fixed sequence, 2-period study to evaluate the effect of a single oral dose of Compound A on the PK of dabigatran in healthy participants.
The objective of this drug-drug interaction study was to evaluate the impact of Compound A on the PK of dabigatran etexilate (a model substrate for P-gp) in healthy adults (NCT05673889)
All participants in this study received one dose of dabigatran etexilate mesylate alone by mouth in Period 1. In Period 2, everyone received one dose of dabigatran etexilate mesylate by mouth approximately 90 mins after receiving one dose of Compound A by mouth. The levels of dabigatran in Period I were compared to the levels of dabigatran in Period 2. This study design was used to determine if and how Compound A affects dabigatran absorption into the body in healthy adults.
This was a Phase 1, open-label, 2-period, fixed-sequence study to estimate the effect of a single oral dose of Compound A on the PK of a P-gp substrate, dabigatran etexilate (as mesylate), in healthy male participants and female participants with nonchildbearing potential. […]
Natural log transformed parameters (AUCinf [if data permitted], AUClast, and Cmax) of total dabigatran were analyzed using a mixed effect model with treatment as a fixed effect and participant as a random effect. […]

[1] = Safety and tolerability (TEAEs, clinical laboratory tests, vital signs, ECGs) in the Phase 1 drug-drug interaction study; format: in vivo, human; settings: for number of all-causality adverse events (AEs): 24 participants
Description: This was a Phase 1, open-label, 2-period, fixed-sequence study to estimate the effect of a single oral dose of Compound A on the PK of a P-gp substrate, dabigatran etexilate (as mesylate), in healthy male participants and female participants with nonchildbearing potential.
On Period 1 Day 1, a standard breakfast (approximately 700 calories with a fat content of approximately 35%) was provided prior to dosing. The standard breakfast was required to be completely consumed within an approximately 20-minute period. A single dose of 75 mg dabigatran etexilate (as mesylate) (as 1 capsule of 75 mg) was administered approximately 2 hrs (120 mins) after starting the standard breakfast. To adequately remove any drug effects of dabigatran, a minimum washout period of 4 days was required after dabigatran etexilate (as mesylate) administration on Period 1 Day 1. Serial PK samples were collected up to 48 hrs after single dose administration to determine dabigatran PK parameters (total).
On Period 2 Day 1, a standard breakfast (approximately 700 calories with a fat content of approximately 35%) was provided prior to Compound A and dabigatran etexilate (as mesylate) dosing. The standard breakfast was required to be the same as provided in Period 1 Day 1 and was required to be completely consumed within an approximately 20-minute period. A single dose of 200 mg Compound A (as 2 tablets of 100 mg) was administered approximately 10 mins after the completion of the breakfast. A single dose of 75 mg dabigatran etexilate
(as mesylate) (as 1 capsule of 75 mg) was administered approximately 1.5 hour (90 mins) after the start of Compound A dosing, which was approximately 2 hrs (120 mins) after the start of the breakfast. Serial PK samples were collected up to 48 hrs post dabigatran etexilate (as mesylate) dosing to determine the single dose PK parameters of Compound A and dabigatran (total) • Masking: No masking (open label) • Enrollment number: 24
Compound A co-administered with dabigatran etexilate mesylate was the test treatment. All safety analyses were performed on the safety analysis set. Safety data were presented in tabular and/or graphical format and summarized descriptively, where appropriate in accordance with the Clinical Data Interchange Standards Consortium Standards […].

[2] = Biopharmaceutics Classification System class; format: physicochemical; settings: low solubility/low permeability
[3] = Preclinical exposure of epimer Compound B compared to Compound A; format: in vivo; settings: preclinical data; Compound B formed by interconversion (epimer) of Compound A
ER = target: T2, ER (Homo sapiens, UniProt P03372); assay: ER degradation; format: cell-based
T2 sequence (P03372 1-595): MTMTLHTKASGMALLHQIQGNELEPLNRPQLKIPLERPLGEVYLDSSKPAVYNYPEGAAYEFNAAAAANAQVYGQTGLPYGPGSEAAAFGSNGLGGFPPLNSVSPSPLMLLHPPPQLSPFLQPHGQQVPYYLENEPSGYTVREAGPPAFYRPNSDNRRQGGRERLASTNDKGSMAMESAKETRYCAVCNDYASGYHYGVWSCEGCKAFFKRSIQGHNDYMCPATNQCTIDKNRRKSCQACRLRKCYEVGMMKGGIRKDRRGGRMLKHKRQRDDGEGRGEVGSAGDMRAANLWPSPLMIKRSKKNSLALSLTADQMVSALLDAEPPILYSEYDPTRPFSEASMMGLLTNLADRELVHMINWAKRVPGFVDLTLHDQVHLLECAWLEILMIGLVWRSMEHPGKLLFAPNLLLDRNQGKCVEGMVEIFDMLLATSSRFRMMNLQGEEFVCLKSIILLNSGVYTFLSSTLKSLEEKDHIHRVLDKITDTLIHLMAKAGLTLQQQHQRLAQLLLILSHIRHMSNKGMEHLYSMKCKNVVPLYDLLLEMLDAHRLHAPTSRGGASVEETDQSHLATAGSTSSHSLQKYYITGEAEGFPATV

[4] = tested on: ER-dependent transcription; assay: Antagonism of ER-dependent transcription; format: cell-based
[5] = Compound A 200 mg and dabigatran etexilate mesylate 75 mg, not considered treatment related
[6] = single dose Compound A 200 mg and dabigatran etexilate mesylate 75 mg
[7] = single dose Compound A 200 mg and dabigatran etexilate mesylate 75 mg (Treatment Period 2)
[8] = dabigatran etexilate mesylate 75 mg alone
[9] = dabigatran etexilate mesylate 75 mg alone, considered treatment related
[10] = dabigatran etexilate mesylate 75 mg alone, not considered treatment related
[11] = single dose dabigatran etexilate mesylate 75 mg (Treatment Period 1)

P-gp inhibition (conclusion from increased dabigatran exposure) (P-gp): P-gp inhibitor
Biopharmaceutics Classification System class [2]: Class IV
Structure (SMILES): O=C1CC[C@H](N2Cc3cc(N4CCN(CC5CCN(c6ccc([C@@H]7c8ccc(O)cc8CC[C@@H]7c7ccccc7)cc6)CC5)CC4)ccc3C2=O)C(=O)N1 [Compound A, (S)-3-(5-(4-((1-(4-((1R,2S)-6-hydroxy-2-phenyl-1,2,3,4-tetrahydronaphthalen-1-yl)phenyl)piperidin-4-yl)methyl)piperazin-1-yl)-1-oxoisoindolin-2-yl) piperidine-2,6-dione]
participants with moderate AE of contusion ([1]; Compound A 200 mg and dabigatran etexilate mesylate 75 mg): 1 (4.2%) participants (%)
participants with moderate AE of headache ([1]; Compound A 200 mg and dabigatran etexilate mesylate 75 mg, considered treatment related): 1 (4.2%) participants (%)
participants with mild AE of contusion [1, 5]: 1 (4.2%) participants (%)
participants with mild AE of oropharyngeal pain [1, 5]: 1 (4.2%) participants (%)
participants with mild AE of rhinorrhea [1, 5]: 1 (4.2%) participants (%)
participants with mild AE of wound [1, 5]: 1 (4.2%) participants (%)
participants with Leukocyte Esterase ≥1 [1, 6]: 1 (4.2%) participants (%)
participants with Monocytes/Leukocytes >1.2×ULN [1, 6]: 2 (8.3%) participants (%)
number of AEs considered treatment related [1, 7]: 1
participants with all-causality AEs (TEAEs) [1, 7]: 6 (25.0%) participants (%)
number of all-causality adverse events (AEs) [1, 7]: 7
participants with treatment related AEs ([1]; single dose Compound A 200 mg and dabigatran etexilate mesylate 75 mg (Treatment Period 2), headache): 1 (4.2%) participants (%)

exposure of Compound B compared to Compound A [3]: < 26%
degradation of the ER (ER): does not degrade the ER
Structure (SMILES): O=C1CC[C@@H](N2Cc3cc(N4CCN(CC5CCN(c6ccc([C@@H]7c8ccc(O)cc8CC[C@@H]7c7ccccc7)cc6)CC5)CC4)ccc3C2=O)C(=O)N1 [Compound B]
antagonism of ER-dependent transcription compared to Compound A [4]: similar

Structure (SMILES): CCCCCCOC(=O)NC(=N)c1ccc(NCc2nc3cc(C(=O)N(CCC(=O)OCC)c4ccccn4)ccc3n2C)cc1 [dabigatran etexilate mesylate, β-Alanine, N-[[2-[[[4-[[[(hexyloxy)carbonyl]amino]iminomethyl]phenyl]amino]methyl]-1-methyl-1H-benzimidazol-5-yl]carbonyl]-N-2-pyridinyl-, ethyl ester]
participants with mild AE of dry throat [1, 8]: 1 (4.2%) participants (%)
participants with mild AE of lip dry [1, 8]: 1 (4.2%) participants (%)
participants with mild AE of diarrhea [1, 9]: 1 (4.2%) participants (%)
participants with mild AE of dry skin [1, 9]: 1 (4.2%) participants (%)
participants with mild AE of hot flush [1, 9]: 1 (4.2%) participants (%)
participants with mild AE of nausea [1, 9]: 1 (4.2%) participants (%)
participants with moderate AE of hematoma [1, 10]: 2 (8.3%) participants (%)
participants with moderate AE of myalgia [1, 10]: 1 (4.2%) participants (%)
participants with Monocytes/Leukocytes >1.2× upper limit of normal (ULN) ([1]; single dose dabigatran etexilate mesylate 75 mg): 2 (8.3%) participants (%)
number of AEs considered treatment related [1, 11]: 4
participants with all-causality AEs (TEAEs) [1, 11]: 6 (25.0%) participants (%)
participants with treatment related AEs [1, 11]: 3 (12.5%) participants (%)
number of all-causality adverse events (AEs) [1, 11]: 9

Structure (SMILES): [H]/N=C(/N)c1ccc(NCc2nc3cc(C(=O)N(CCC(=O)O)c4ccccn4)ccc3n2C)cc1 [dabigatran, 3-[[2-[(4-carbamimidoylanilino)methyl]-1-methylbenzimidazole-5-carbonyl]-pyridin-2-ylamino]propanoic acid]
participants with all-causality AEs (TEAEs) [1, 11]: 6 (25.0%) participants (%)
participants with treatment related AEs [1, 11]: 3 (12.5%) participants (%)
